According to patent US20040002505A1, “Medicinal compositions for cocominant use as anticancer agent” (priority 2000, published 2004):
Structures can show the parent of a compound that is named as a salt. Where two headings read alike, the source gives them in different places.

Tests used:
[1] = system: Human colon cancer strain Colo320D.M.; experiment: Combined use of E7070 and 5-FU in human colon cancer Colo320D.M. xenograft model; conditions: alone or simultaneous; for Toxicity Dead/Treated: E7070 30 mg/kg/day day 1-5, 5-FU 60 mg/kg/day day 1, 5, 9
From the text: (§1) Cancer Chemother Pharmacol. 1992;30(1):25-30; (ii)Enhancement of vincristine cytotoxicity in drug-resistant cells by simultaneous treatment with onconase, an antitumor ribonuclease. J Natl Cancer Inst. 1996 June 5;88(11):747-53; (iii)Effects of growth hormone and testosterone on cortical bone formation and bone density in aged orchiectomized rats. Bone. 1999 May;24(5):491-7).

[2] = system: Human colon cancer strain HCT15; conditions: alone or in combination; for Toxicity Dead/Treated: E7070 30 mg/kg/day QDx5, CPT-11 75 mg/kg/day Q4Dx3; for Tx4 (days) mean ± S.D.: HCT15 xenograft, nude mice, iv, E7070 30 mg/kg/day QDx5 (day 1-5), CPT-11 75 mg/kg/day Q4Dx3 (day 1, 5, 9)
From the text: as §1

[3] = system: Human colon cancer strain SW620; conditions: E7070 25 mg/kg/day day 1-5, CPT-11 62.5 mg/kg/day day 1, 5, 9, alone or simultaneous
From the text: as §1

[4] = system: Human non-small cell lung cancer LU-99; conditions: alone or simultaneous
From the text: as §1

[5] = system: Human colon cancer strain HCT15; experiment: Combined use of E7070 and MMC in human colon cancer HCT15 xenograft model; conditions: alone or in combination; for Toxicity Dead/Treated: E7070 25 mg/kg/day QDx5, MMC 4.19 mg/kg/day QDx1; for Tx4 (days) mean ± S.D.: HCT15 xenograft, nude mice, iv, E7070 25 mg/kg/day QDx5 (day 1-5; combination line prints 30 mg/kg/day), MMC 4.19 mg/kg/day QDx1 (day 1)
From the text: as §1

[6] = used in combination with E7070; model and data not given
[7] = system: Human colon cancer strain HCT15; experiment: Combined use of E7070 and Gemcitabine in human colon cancer HCT15 xenograft model; format: in vivo, nude mouse; conditions: used in combination with E7070; no data given
From the text: as §1

[8] = E7070 25 mg/kg/day day 1-5, CDDP 7.5 mg/kg/day day 1

O=c1[nH]cc(F)c(=O)[nH]1 [5-FU, 5-fluoro-2,4-(1H,3H)-pyrimidinedione]
Tx4 (days) mean ± S.D. ([1]; Colo320D.M. xenograft, nude mice, iv, E7070 30 mg/kg/day QDx5 (day 1-5), 5-FU 60 mg/kg/day Q4Dx3 (day 1, 5, 9)): 10.0 ± 0.7 days | Toxicity Dead/Treated [1]: 0/6

CCc1c2c(nc3ccc(OC(=O)N4CCC(N5CCCCC5)CC4)cc13)-c1cc3c(c(=O)n1C2)COC(=O)[C@]3(O)CC [CPT-11, [1,4′-Bipiperidine]-1′-carboxylic acid (S)-4,11-diethyl-3,4,12,14-tetrahydro-4-hydroxy-3,14-dioxo-1H-pyrano-[3′,4′:6,7]-indolizino[1,2-b]quinolin-9-yl ester Hydrochloride trihydrate]
Toxicity Dead/Treated [2]: 0/6 | Tx4 (days) mean ± S.D. [2]: 17.8 ± 1.0 days | Toxicity Dead/Treated [3]: 0/6

NS(=O)(=O)c1ccc(S(=O)(=O)Nc2cccc3c(Cl)c[nH]c23)cc1 [E7070, N-(3-chloro-1H-indol-7-yl)-4-sulfamoylbenzenesulfonamide]
Toxicity Dead/Treated [2]: 0/6 | Tx4 (days) mean ± S.D. [2]: 18.7 ± 2.0 days | Toxicity Dead/Treated [3]: 0/6 | mRTV mean ± S.D. ([3]; minimum relative tumor volume, day of minimum in parentheses in the cell): 0.76 ± 0.42(12) | Toxicity Dead/Treated [4, 8]: 0/6 | mRTV mean ± S.D. ([4]; minimum relative tumor volume, E7070 25 mg/kg/day day 1-5, CDDP 7.5 mg/kg/day day 1): 0.75 ± 0.16 | Toxicity Dead/Treated [5]: 0/6 | Tx4 (days) mean ± S.D. [5]: 12.7 ± 2.2 days | Toxicity Dead/Treated [1]: 0/6

CO[C@@]12[C@H](COC(N)=O)C3=C(C(=O)C(C)=C(N)C3=O)N1C[C@@H]1N[C@@H]12 [MMC, [1aS-(1aα,8β,8aα,8bα)]-6-amino-8-[[(aminocarbonyl)oxy]methyl]1,1a,2,8,8a,8b-hexahydro-8a-methoxy-5-methylazirino[2′,3′:3,4]pyrrolo[1,2-a]indole-4,7-dione]
Toxicity Dead/Treated [5]: 0/6 | Tx4 (days) mean ± S.D. [5]: 16.2 ± 3.4 days

COc1cccc2c1C(=O)c1c(O)c3c(c(O)c1C2=O)C[C@@](O)(C(=O)CO)C[C@@H]3O[C@H]1C[C@H](N)[C@H](O)[C@H](C)O1 [doxorubicin, 10-[(3-amino-2,3,6-trideoxy-α-L-lyxo-hexopyranosyl)oxy]-7,8,9,10-tetrahydro-6,8,11-trihydroxy-8-(hydroxyacetyl)-1-methoxy-(8S-cis)-5,12-naphthacenedione]
synergistic effect, antitumor activity [6]: excellent antitumor activity

Cl.Nc1ccn([C@@H]2O[C@H](CO)[C@@H](O)C2(F)F)c(=O)n1 [gemcitabine hydrochloride, 2′-deoxy-2′,2′-difluoro-cytidine hydrochloride]
synergistic effect, antitumor activity [7]: excellent antitumor activity

cis-diamminedichloroplatinum [CDDP]
Toxicity Dead/Treated [4, 8]: 0/6 | Tx4 (days) mean ± S.D. ([4]; LU-99 xenograft, nude mice, iv, E7070 25 mg/kg/day QDx5 (day 1-5), CDDP 7.5 mg/kg/day QDx1 (day 1)): 10.7 ± 0.5 days | Toxicity mRBW mean ([4]; minimum relative body weight, day of minimum in parentheses in the cell, E7070 25 mg/kg/day day 1-5, CDDP 7.5 mg/kg/day day 1): 0.95(5)
